Reference: patent US20100196929A1, “STABILISATION OF THE PHENOTYPIC PROPERTIES OF ISOLATED PRIMARY CELLS” (Vrije Universiteit Brussel, priority 2007, published 2010)

Legend:
hepatoma cell lines = details: cited from earlier work
primary hepatocytes = details: cited from earlier work
[1] = system: EGF-stimulated adult primary rat hepatocytes; assay: DNA synthesis ([methyl-3H]-thymidine incorporation) in EGF-stimulated hepatocytes; type: cell-based; details: 72 hours; for dose-response of inhibition of DNA replication: increasing concentrations (4-Me2N-BAVAH 10-50 μM, AN-8 1-5 μM, DAC 1-500 μM)
Method: (§1) Hepatocytes (viability >80%) were isolated from male Sprague-Dawley rats by a two-step collagenase perfusion. Cells (0.4×10^5 cells/cm^2) were cultured in MEM/M199 (3:1, v/v), containing 1 mg/ml BSA, 5 μg/ml bovine insulin, 2 mM L-glutamine, antibiotics (7.3 IU/ml benzyl penicillin, 50 μg/ml streptomycin sulphate, 50 μg/ml kanamycin monosulphate and 10 μg/ml sodium ampicillin) and 10% (v/v) fetal calf serum.
(§2) After 4 h, medium was removed and serum-free medium, containing 0.5 μg/ml hydrocortisone and 50 μg/ml EGF, was added and renewed daily.
DAC was dissolved in PBS, 4-Me2N-BAVAH and AN-8 were dissolved in ethanol, to a concentration of 100 mM for DAC and 4-Me2N-BAVAH and 25 mM for AN-8.
(§3) 1) unstimulated cultures, referred to as “negative control” or “−EGF”, where hepatocytes are arrested at the mitogen-dependent R-point. 2) EGF-stimulated cultures, referred to as “positive control” or “+EGF”, in which EGF induces G1/S transition and mitosis. 3) EGF-stimulated cultures treated with DAC and/or in combination with 4-Me2N-BAVAH or AN-8.
DNA replication was measured as incorporation of radioactively labeled thymidine into newly synthesized DNA. Cells were incubated with [methyl-3H]-thymidine (25 Ci/mmol) for 24 hours and harvested at 72 hours in ice-cold PBS, the time point where DNA synthesis in untreated EGF-stimulated cultures is maximal. DNA was precipitated with 30% trichloroacetic acid (TCA) overnight at 4° C. After centrifugation, cells were washed once with 10% TCA and twice with 5% TCA. The pellet was solved in formic acid and radioactively labeled thymidine was measured by liquid scintillation counting.
From the moment of seeding, adult primary rat hepatocytes, stimulated with EGF 4 hours after plating and constantly thereafter, were exposed to different concentrations of 4-Me2N-BAVAH (10 μM, 15 μM, 20 μM, 25 μM and 50 μM), AN-8 (1 μM, 2.5 μM and 5 μM) or DAC (1 μM, 10 μM, 50 μM, 100 μM, 250 μM and 500 μM). [methyl-3H]-Thymidine incorporation was measured at 72 hours.
From the moment of seeding, adult primary rat hepatocytes, stimulated with EGF 4 hours after plating and constantly thereafter, were exposed to different combinations of 4-Me2N-BAVAH and DAC or AN-8 and DAC:
[methyl-3H]-Thymidine incorporation was measured at 72 hours.

[2] = system: EGF-stimulated cultured hepatocytes; assay: Cell morphology by inverse light microscopy; type: cell-based, rat
Method: as §1, §2, §3
Cell morphology was analyzed by inverse light microscopy, using an Optiphot Nikon Phase Contrast microscope.

[3] = system: EGF-stimulated adult primary rat hepatocytes; assay: Albumin secretion into culture medium (ELISA); type: cell-based; details: 48-72 hours of culture
Method: as §1, with “are” for “were”
After 4 h, medium was removed and serum-free medium, containing 0.5 μg/ml hydrocortisone and 50 μg/ml EGF, is added and renewed daily.
1) EGF-stimulated cultures, referred to as “positive control” or “control”. 2) EGF-stimulated cultures treated with DAC and/or in combination with 4-Me2N-BAVAH or AN-8.
Medium samples were analyzed for their albumin content by an enzyme-linked immunosorbent assay (ELISA) according to Dunn et al. 1991 (Biotechnol Prog 7(3): 237-245).
From the moment of seeding, adult primary rat hepatocytes, stimulated with EGF 4 hours after plating and constantly thereafter, were exposed to 50 μM 4-Me2N-BAVAH, 5 μM AN-8 or 500 μM DAC. Albumin secretion into the culture medium was measured between 48-72 hours of culture (FIG. 7A-C).
From the moment of seeding, adult primary rat hepatocytes, stimulated with EGF 4 hours after plating and constantly thereafter, were exposed to a combination of 25 μM 4-Me2N-BAVAH and 50 μM DAC. Albumin secretion into the culture medium is measured between 48-72 hours of culture (FIG. 8A).

CYP1A1 = CYP1A1 protein expression (immunoblot); type: cell-based, rat; details: increasing concentrations (DAC 1-500 μM, AN-8 1-5 μM); 72 h
Method: as §1, with “two step” for “two-step”, “serum. After 4 h, medium was removed and serum-free medium, containing 0.5 μg/ml hydrocortisone and 50 μg/ml EGF, was added and renewed daily. DAC was dissolved in PBS, whereas AN-8 was dissolved in ethanol to a concentration of 100 mM for DAC and 25 mM for AN-8.” for “serum.”
1) EGF-stimulated cultures, referred to as C. 2) EGF-stimulated cultures, exposed to 0.02% v/v ethanol, referred to as S. 3) EGF-stimulated cultures treated with DAC and/or AN-8.
At 72 h, cultured hepatocytes were harvested in ice-cold PBS. Cell pellets were lysed in homogenization buffer, sonicated and left for 1 hour on ice. After centrifugation, the protein concentration in the supernatant was determined. 50 μg proteins were separated by sodium dodecyl sulphate polyacrylamide gel electrophoresis (SDS-PAGE, 7.5%) and transferred to nitrocellulose membranes. Subsequently, membranes are immersed into Ponceau S to examine equal sample loading. […] Proteins were detected by using an enhanced chemiluminescence detection system. […]

| SMILES | apoptosis (hepatoma cell lines) | apoptosis (primary hepatocytes) | dose-response of inhibition of DNA replication [1] | CYP1A1 protein expression vs untreated hepatocyte cultures (CYP1A1) | further results |
| --- | --- | --- | --- | --- | --- |
| CC(/C=C/C(=O)NO)=C\[C@@H](C)C(=O)c1ccc(N(C)C)cc1 [TSA, Trichostatin A] | induce apoptosis | not |  |  |  |
| CCCC(CCC)C(=O)O [valproate] | induce apoptosis | not |  |  |  |
| CCN(CC)Cc1ccc2cc(COC(=O)Nc3ccc(C(=O)NO)cc3)ccc2c1 [ITF2357] | induce apoptosis | not |  |  |  |
| Nc1ncn([C@H]2C[C@H](O)[C@@H](CO)O2)c(=O)n1 [DAC, 5-aza-2′-deoxycytidine] |  |  | clear dose-response relationship | dose-dependent higher CYP1A1 protein expression | inhibition of the DNA synthesis ([1]; 500 μM): complete inhibition; cell shape vs untreated control cultures with EGF alone ([2]; 500 μM): retained better the in vivo-like cuboidal shape; inhibition of proliferation (morphological appearance) vs untreated +EGF culture ([2]; 500 μM): clear inhibition of proliferation; increase in albumin secretion compared to control cultures ([3]; 500 μM): 1.8 fold |
| CN(C)c1ccc(C(=O)NCCCCC(=O)NO)cc1 [4-Me2N-BAVAH, 5-(4-dimethylaminobenzoyl)-aminovaleric acid hydroxamide] |  |  | clear dose-response relationship |  | inhibition of the DNA synthesis ([1]; 50 μM): complete inhibition; increase in albumin secretion compared to control cultures ([3]; 50 μM): 2.4 fold |
| O=C(CCCCCNC(=O)c1ccc(N2CCCC2)cc1)NO [AN-8] |  |  | clear dose-response relationship | dose-dependent higher CYP1A1 protein expression | inhibition of the DNA synthesis ([1]; 5 μM): complete inhibition; cell shape vs untreated control cultures with EGF alone ([2]; 5 μM): retained better the in vivo-like cuboidal shape; inhibition of proliferation (morphological appearance) vs untreated +EGF culture ([2]; 5 μM): clear inhibition of proliferation; increase in albumin secretion compared to control cultures ([3]; 5 μM): 2.1 fold |
